# According to patent US20130011384A1, “Use of a Material, Produced from Fungal Fermentation, as a Food Supplement” (priority 2010, published 2013):
# System: methanogenic archaea
# Experiment: In vitro sequential batch fermentation of sheep ruminal fluid with alfalfa hay (Example 2)
# Assay type: cell-based
# Details: for Acetate / Butyrate / Gas / Methane / Propionate / Total VFA: 48 hrs at 39° C., 100 μl/tube, monacolin K 20 μg/ml final
# Description: The effect of a rice extract fermented by a selected strain of Monascus sp., prepared in accordance with Example 1, on ruminal fermentation, specifically on methane production, was studied in vitro by using a sequential batch fermentation system.
# Three sheep equipped with rumen cannulae, receiving hay-based feed twice a day, were used as ruminal content donors. The ruminal contents of the three animals were sampled in the morning before feeding, filtered through a cloth with a mesh size of 400 μm in diameter in order to obtain the liquid phase, and mixed in equal quantities. To seventy-five milliliters of this mixed ruminal fluid was added 300 ml of anaerobic buffer solution (Weller & Pilgrim, Br. J. Nutr. 32:341-51. 1974). An aliquot fraction (5 ml) of this ruminal fluid/buffer solution was then transferred into Hungate tubes in a CO2 atmosphere containing 100±2 mg of alfalfa hay. To each tube was added, respectively: (i) 100 μl of the Monascus extract, or (ii) pure monacolin K, (iii) a 25% (v/v) ethanol solution, or (iv) water (see Table 1 below). The tubes were incubated at 39° C. for 48 hrs. Each treatment was performed three times.
# After 48 hrs. of incubation, 2 ml of each of the triplicates of each treatment were mixed, and 1.5 ml of this mixture was used to inoculate 3 new Hungate tubes containing 3.5 ml of buffer and 100 mg of alfalfa hay.
# Next, 100 μl of the various treatments was added to the tubes (Cf. Table 1 above), and the tubes were again incubated at 39° C. while stirring for an additional 48 hrs. This procedure was repeated a second time.
# At the end of each 48-hr. period, gas production and concentrations of methane and of volatile fatty acids resulting from fermentation were measured.
structure (smiles),measurement,setting,value
"CC[C@H](C)C(=O)O[C@H]1C[C@@H](C)C=C2C=C[C@H](C)[C@H](CC[C@@H]3C[C@@H](O)CC(=O)O3)[C@H]21 [Monacolin K, monacolin K]",Acetate,1st Transfer,69.6 ± 1.5 mmol/L
same,Butyrate,1st Transfer,6.1 ± 0.1 mmol/L
same,Gas,1st Transfer,21.9 ± 0.3 mL
same,Methane,1st Transfer,162.5 ± 22.9 µmol
same,Propionate,1st Transfer,16.7 ± 0.4 mmol/L
same,Total VFA,1st Transfer,96.3 ± 2.1
same,Acetate,2nd Transfer,49.1 ± 3.8 mmol/L
same,Butyrate,2nd Transfer,5.9 ± 0.7 mmol/L
same,Gas,2nd Transfer,17.8 ± 0.5 mL
same,Methane,2nd Transfer,16.2 ± 17.0 µmol
same,Propionate,2nd Transfer,19.7 ± 2.8 mmol/L
same,Total VFA,2nd Transfer,76.5 ± 7.4
same,Acetate,3rd Transfer,57.3 ± 6.9 mmol/L
same,Butyrate,3rd Transfer,6.6 ± 1.0 mmol/L
same,Gas,3rd Transfer,19.2 ± 0.4 mL
same,Methane,3rd Transfer,59.1 ± 9.4 µmol
same,Propionate,3rd Transfer,28.5 ± 3.5 mmol/L
same,Total VFA,3rd Transfer,95.1 ± 11.5
same,methane-production-reducing effect,"in vitro, under the same conditions as the Monascus fermentation product",no methane-production-reducing effect
